Test results taken from US20210227837A1, “NATAMYCIN FOR THE PRESERVATION OF A BAKED PRODUCT” (DSM IP ASSETS B.V., priority 2018, published 2021).

Tests used:
[1] = Stability of natamycin solutions in propylene glycol and aqueous sodium acetate or potassium acetate (residual natamycin by HPLC); assay type: physicochemical; settings: 4-7° C., natamycin 1%
Experimental: (§1) Natamycin concentrations were determined using […] as follows. • HPLC system: Waters iClass • Column: Waters Symmetry C18, 4.6×150 mm, 3.5 μm, Part No. WAT200632, Column no. 1483, Lot no. 0198313011 • Column temperature: 25° C. • Eluent A: 50 mM ammonium acetate buffer pH 5.8 (with acetic acid) • Eluent B: Acetonitrile • Wash: 60% acetonitrile/40% water (v/v) • Injection volume: 10 μl • Injector temperature: 10° C. in darkness • Flow: 1 mL/min
(§2) The reverse phase HPLC uses a UV detector to determine the residual concentration of natamycin at 303 nm. A set of standard dilutions containing subsequently increasing concentrations of natamycin in methanol was made and from these a calibration curve was obtained. The concentration of natamycin should not exceed a concentration of 88 mg/L. Generally, the dilutions contained 20 mg of sample and […] of methanol.
(§3) A 4.4 M solution of sodium acetate or a 5 M solution of potassium acetate in water (3 g) was mixed with propylene glycol (16 g) and natamycin (0.2 g) and heated until a final temperature of 105° C. to give a solution with a natamycin concentration of 1% (w/w). […] Samples of the mixtures were analyzed over time by HPLC for residual natamycin concentration. The shelf life test of the mixtures was done by storage at low temperatures (4-7° C.) and ambient temperatures (20-23° C.).

[2] = neutral pH values; cited from earlier work
[3] = Stability of natamycin solutions in aqueous potassium sorbate (residual natamycin by HPLC); assay type: physicochemical
Experimental: as §1, §2
To obtain a 1% solution, 33 mg of natamycin was used instead of 0.2 g and heating during dissolution was omitted, resulting in a salt/natamycin ratio of 45 (w/w) or 200 (mole/mole). Samples of the mixtures were analyzed over time by HPLC for residual natamycin concentration. The shelf life test of the mixtures was done by storage at low temperatures (4-7° C.) and ambient temperatures (20-24° C.).

[4] = Stability of natamycin solutions in propylene glycol and aqueous sodium lactate (residual natamycin by HPLC); assay type: physicochemical; settings: 4-7° C., pH 7.8, natamycin 1% (w/w)
Experimental: as §1, §2
as §3, with “[…]” for “4.4”, “lactate” for “acetate or a 5 M solution of potassium acetate”, “(4-7°” for “(4-7° C.) and ambient temperatures (20-23°”

Residual natamycin (%) ([1]; Blank (absence of sodium), propylene glycol, pH 6.2, day 0): 80% | Residual natamycin (%) ([1]; Blank (absence of sodium), propylene glycol, pH 6.2, day 12): 43% | Residual natamycin (%) ([1]; Blank (absence of sodium), propylene glycol, pH 6.2, day 23): 22% | Residual natamycin (%) ([1]; Blank (absence of sodium), propylene glycol, pH 6.2, day 30): 12% | Residual natamycin (%) ([1]; Blank (absence of sodium), propylene glycol, pH 6.2, day 31): 7% | Residual natamycin (%) ([1]; Blank (absence of sodium), propylene glycol, pH 6.2, day 50): 1% | Residual natamycin (%) ([1]; propylene glycol + aqueous sodium acetate, pH 8.2, day 0): 98% | Residual natamycin (%) ([1]; propylene glycol + aqueous sodium acetate, pH 8.2, day 31): 72% | Residual natamycin (%) ([1]; propylene glycol + aqueous sodium acetate, pH 8.2, day 51): 58% | Residual natamycin (%) ([3]; 4-7° C., pH 9.7, natamycin 6% (w/w), day 0): 103% | Residual natamycin (%) ([3]; 4-7° C., pH 9.7, natamycin 6% (w/w), day 5): 103% | Residual natamycin (%) ([3]; 4-7° C., pH 9.7, natamycin 6% (w/w), day 6): 99% | Residual natamycin (%) ([3]; 4-7° C., pH 9.7, natamycin 6% (w/w), day 12): 100% | Residual natamycin (%) ([3]; 4-7° C., pH 9.7, natamycin 6% (w/w), day 31): 92% | Residual natamycin (%) ([3]; 4-7° C., pH 9.7, natamycin 6% (w/w), day 42): 92% | Residual natamycin (%) ([3]; 4-7° C., pH 9.7, natamycin 6% (w/w), day 49): 88% | Residual natamycin (%) ([3]; 4-7° C., pH 9.7, natamycin 6% (w/w), day 69): 80% | Residual natamycin (%) ([3]; 20-24° C., pH 9.6, natamycin 6% (w/w), day 0): 105% | Residual natamycin (%) ([3]; 20-24° C., pH 9.6, natamycin 6% (w/w), day 2): 104% | Residual natamycin (%) ([3]; 20-24° C., pH 9.6, natamycin 6% (w/w), day 6): 98% | Residual natamycin (%) ([3]; 20-24° C., pH 9.6, natamycin 6% (w/w), day 8): 98% | Residual natamycin (%) ([3]; 20-24° C., pH 9.6, natamycin 6% (w/w), day 15): 97% | Residual natamycin (%) ([3]; 20-24° C., pH 9.6, natamycin 6% (w/w), day 20): 95% | Residual natamycin (%) ([3]; 20-24° C., pH 9.6, natamycin 6% (w/w), day 23): 93% | Residual natamycin (%) ([3]; 20-24° C., pH 9.6, natamycin 6% (w/w), day 34): 81% | Residual natamycin (%) ([3]; 20-24° C., pH 9.6, natamycin 6% (w/w), day 65): 73% | Residual natamycin (%) ([3]; 20-24° C., pH 9.9, natamycin 1% (w/w), day 0): 104% | Residual natamycin (%) ([3]; 20-24° C., pH 9.9, natamycin 1% (w/w), day 2): 101% | Residual natamycin (%) ([3]; 20-24° C., pH 9.9, natamycin 1% (w/w), day 6): 97% | Residual natamycin (%) ([3]; 20-24° C., pH 9.9, natamycin 1% (w/w), day 8): 94% | Residual natamycin (%) ([3]; 20-24° C., pH 9.9, natamycin 1% (w/w), day 15): 88% | Residual natamycin (%) ([3]; 20-24° C., pH 9.9, natamycin 1% (w/w), day 20): 79% | Residual natamycin (%) ([3]; 20-24° C., pH 9.9, natamycin 1% (w/w), day 23): 80% | Residual natamycin (%) ([3]; 20-24° C., pH 9.9, natamycin 1% (w/w), day 34): 62% | Residual natamycin (%) ([3]; 20-24° C., pH 9.9, natamycin 1% (w/w), day 65): 45% | Residual natamycin (%) ([4]; day 0): 89% | Residual natamycin (%) ([4]; day 1): 88% | Residual natamycin (%) ([4]; day 3): 84% | Residual natamycin (%) ([4]; day 6): 81% | Residual natamycin (%) ([4]; day 10): 84% | Residual natamycin (%) ([4]; day 27): 71% | Residual natamycin (%) ([4]; day 38): 63% | Residual natamycin (%) ([4]; day 45): 62% | Residual natamycin (%) ([4]; day 65): 45%
SMILES: C[C@@H]1C/C=C/C=C/C=C/C=C/[C@H](O[C@@H]2O[C@H](C)[C@@H](O)[C@H](N)[C@@H]2O)C[C@@H]2O[C@](O)(C[C@@H](O)C[C@H]3O[C@@H]3/C=C/C(=O)O1)C[C@H](O)[C@H]2C(=O)O [natamycin]
solubility in water [2]: around 0.04 g/kg
